In assay [1] the target is Platelet-derived growth factor receptor alpha (Homo sapiens) (UniProt P16234). The assay can be described thus: Inhibition of human recombinant PDGFRa at 15 nM in presence of ATP by radiometric assay relative to control.
The target in assay [2] is Angiopoietin-1 receptor (Homo sapiens) (UniProt Q02763). Description: Inhibition of human recombinant Tie2 at 15 nM in presence of ATP by radiometric assay relative to control.
Assay [3] concerns the target T1, Serine/threonine-protein kinase Sgk3 (Homo sapiens) (UniProt Q96BR1).
T1 sequence (whole entry): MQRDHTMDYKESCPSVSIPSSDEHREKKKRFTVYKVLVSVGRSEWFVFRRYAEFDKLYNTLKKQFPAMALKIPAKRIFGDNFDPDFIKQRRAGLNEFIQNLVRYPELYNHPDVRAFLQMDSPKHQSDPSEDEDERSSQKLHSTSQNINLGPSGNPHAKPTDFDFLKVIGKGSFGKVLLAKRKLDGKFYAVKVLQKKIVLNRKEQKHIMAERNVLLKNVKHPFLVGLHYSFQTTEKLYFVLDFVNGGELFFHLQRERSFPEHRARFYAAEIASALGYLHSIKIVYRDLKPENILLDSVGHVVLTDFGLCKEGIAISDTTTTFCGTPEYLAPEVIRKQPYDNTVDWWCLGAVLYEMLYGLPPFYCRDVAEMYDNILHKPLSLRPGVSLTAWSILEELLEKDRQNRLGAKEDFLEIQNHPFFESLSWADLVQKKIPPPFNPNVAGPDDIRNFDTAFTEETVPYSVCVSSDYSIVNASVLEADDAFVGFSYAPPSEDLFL
The assay can be described thus: Inhibition of human recombinant SGK3 at 15 nM related to control ULK1.

For assay [4], the target named is Serine/threonine-protein kinase Nek6 (Homo sapiens) (UniProt Q9HC98). The assay can be described thus: Inhibition of human recombinant NEK6 at 15 nM related to control ULK1.
Assay [5] concerns the target Tyrosine-protein kinase Fer (Homo sapiens) (UniProt P16591). Description: Inhibition of human recombinant FER at 15 nM related to control ULK1.
Assay [6] has as its target Cyclin-dependent kinase 7 (Homo sapiens) (UniProt P50613). Description: Inhibition of human recombinant CDK7 at 40 nM in presence of ATP by radiometric assay relative to control.
The target of assay [7] is Leucine-rich repeat serine/threonine-protein kinase 2 (Homo sapiens) (UniProt Q5S007). The assay can be described thus: Inhibition of human recombinant LRRK2 at 40 nM in presence of ATP by radiometric assay relative to control.
In assay [8] the target is Cyclin-dependent kinase 12 (Homo sapiens) (UniProt Q9NYV4). Description: Inhibition of human recombinant CRK7 at 40 nM related to control ULK1.
Cyclin-dependent kinase 12 (Homo sapiens), sequence (Q9NYV4 whole entry, looked up): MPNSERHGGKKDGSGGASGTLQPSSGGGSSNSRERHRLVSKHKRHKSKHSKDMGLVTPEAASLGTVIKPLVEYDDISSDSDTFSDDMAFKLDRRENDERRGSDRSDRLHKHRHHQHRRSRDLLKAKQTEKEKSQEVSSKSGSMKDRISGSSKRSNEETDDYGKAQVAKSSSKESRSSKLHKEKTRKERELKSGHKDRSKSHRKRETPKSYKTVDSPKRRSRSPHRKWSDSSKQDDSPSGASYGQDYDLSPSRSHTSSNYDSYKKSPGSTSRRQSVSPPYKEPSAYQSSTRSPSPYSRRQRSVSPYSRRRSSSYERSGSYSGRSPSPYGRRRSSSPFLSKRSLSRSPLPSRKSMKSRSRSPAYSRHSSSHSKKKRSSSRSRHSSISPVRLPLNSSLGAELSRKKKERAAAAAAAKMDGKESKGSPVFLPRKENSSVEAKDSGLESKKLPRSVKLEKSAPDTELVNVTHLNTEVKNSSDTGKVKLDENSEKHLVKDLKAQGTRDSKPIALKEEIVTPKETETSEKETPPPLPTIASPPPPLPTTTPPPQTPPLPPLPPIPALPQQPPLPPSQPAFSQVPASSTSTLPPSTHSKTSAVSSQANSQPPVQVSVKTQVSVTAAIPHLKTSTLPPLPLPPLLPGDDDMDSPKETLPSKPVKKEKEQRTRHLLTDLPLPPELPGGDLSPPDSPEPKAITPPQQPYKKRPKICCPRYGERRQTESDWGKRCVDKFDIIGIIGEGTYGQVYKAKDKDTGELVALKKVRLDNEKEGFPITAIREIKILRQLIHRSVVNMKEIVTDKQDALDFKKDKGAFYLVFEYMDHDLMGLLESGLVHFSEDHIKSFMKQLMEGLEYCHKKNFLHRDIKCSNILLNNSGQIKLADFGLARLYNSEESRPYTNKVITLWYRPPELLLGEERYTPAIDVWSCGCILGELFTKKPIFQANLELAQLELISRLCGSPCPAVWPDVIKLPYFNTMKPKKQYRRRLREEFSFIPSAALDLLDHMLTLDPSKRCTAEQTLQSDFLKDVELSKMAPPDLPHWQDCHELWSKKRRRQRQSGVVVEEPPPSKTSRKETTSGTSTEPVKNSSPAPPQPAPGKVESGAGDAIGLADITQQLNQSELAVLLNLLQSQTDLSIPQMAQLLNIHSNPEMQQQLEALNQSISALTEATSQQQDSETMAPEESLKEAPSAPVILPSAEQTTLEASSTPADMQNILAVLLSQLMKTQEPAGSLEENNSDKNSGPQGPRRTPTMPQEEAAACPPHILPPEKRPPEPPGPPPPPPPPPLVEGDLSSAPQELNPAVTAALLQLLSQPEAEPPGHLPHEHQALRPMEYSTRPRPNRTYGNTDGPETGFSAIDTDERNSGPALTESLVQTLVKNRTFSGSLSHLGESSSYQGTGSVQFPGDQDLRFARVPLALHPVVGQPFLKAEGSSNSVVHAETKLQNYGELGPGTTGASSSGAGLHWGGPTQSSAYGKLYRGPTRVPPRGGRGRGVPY
Assay [9] deals with Serine/threonine-protein kinase Chk2 (Homo sapiens) (UniProt O96017). Description: Inhibition of human recombinant CHK2 at 40 nM related to control ULK1.
Serine/threonine-protein kinase Chk2 (Homo sapiens), sequence (O96017 whole entry): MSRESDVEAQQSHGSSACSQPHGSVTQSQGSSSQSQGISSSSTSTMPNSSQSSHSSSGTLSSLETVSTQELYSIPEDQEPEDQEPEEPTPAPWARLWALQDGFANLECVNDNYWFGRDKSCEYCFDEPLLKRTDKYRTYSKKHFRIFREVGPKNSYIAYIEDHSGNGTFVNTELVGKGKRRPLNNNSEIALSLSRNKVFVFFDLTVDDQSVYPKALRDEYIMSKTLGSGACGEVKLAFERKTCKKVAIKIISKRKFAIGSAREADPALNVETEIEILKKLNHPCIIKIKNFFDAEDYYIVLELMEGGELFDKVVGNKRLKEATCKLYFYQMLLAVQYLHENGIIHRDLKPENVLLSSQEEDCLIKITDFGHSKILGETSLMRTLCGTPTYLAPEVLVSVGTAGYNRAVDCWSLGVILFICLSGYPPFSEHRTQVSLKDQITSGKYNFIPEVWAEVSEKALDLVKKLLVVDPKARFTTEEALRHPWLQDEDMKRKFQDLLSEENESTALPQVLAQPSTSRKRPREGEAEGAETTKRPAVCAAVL
Assay [10] deals with Fibroblast growth factor receptor 1 (Homo sapiens) (UniProt P11362). The assay can be described thus: Inhibition of human recombinant FGFR1 at 40 nM in presence of ATP by radiometric assay relative to control.
Fibroblast growth factor receptor 1 (Homo sapiens), sequence (P11362 22-822 limits assumed): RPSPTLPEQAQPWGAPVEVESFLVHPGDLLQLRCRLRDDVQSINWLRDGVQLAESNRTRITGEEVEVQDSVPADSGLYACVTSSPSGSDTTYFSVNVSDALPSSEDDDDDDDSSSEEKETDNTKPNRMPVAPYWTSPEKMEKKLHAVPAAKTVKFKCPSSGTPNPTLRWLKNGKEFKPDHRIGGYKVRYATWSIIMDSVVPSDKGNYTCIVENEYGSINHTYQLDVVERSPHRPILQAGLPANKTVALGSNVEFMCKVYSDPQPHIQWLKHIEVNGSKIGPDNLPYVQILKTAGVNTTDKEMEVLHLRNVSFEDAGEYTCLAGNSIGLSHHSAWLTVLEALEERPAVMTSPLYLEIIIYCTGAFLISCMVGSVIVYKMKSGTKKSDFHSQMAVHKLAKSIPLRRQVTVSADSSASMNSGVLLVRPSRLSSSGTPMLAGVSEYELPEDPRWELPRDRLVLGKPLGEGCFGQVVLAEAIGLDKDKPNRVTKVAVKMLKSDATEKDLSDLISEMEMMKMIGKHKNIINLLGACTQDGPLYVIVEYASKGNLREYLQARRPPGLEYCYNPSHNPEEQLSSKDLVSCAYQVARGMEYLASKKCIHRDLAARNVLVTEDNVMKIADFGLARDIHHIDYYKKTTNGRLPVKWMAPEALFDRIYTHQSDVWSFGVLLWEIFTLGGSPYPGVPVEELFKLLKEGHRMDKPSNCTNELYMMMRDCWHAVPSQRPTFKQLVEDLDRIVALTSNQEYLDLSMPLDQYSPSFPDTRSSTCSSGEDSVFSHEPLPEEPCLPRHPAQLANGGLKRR
The target of assay [11] is T2, Testis-specific serine/threonine-protein kinase 4 (Homo sapiens) (UniProt Q6SA08).
T2 sequence (whole entry): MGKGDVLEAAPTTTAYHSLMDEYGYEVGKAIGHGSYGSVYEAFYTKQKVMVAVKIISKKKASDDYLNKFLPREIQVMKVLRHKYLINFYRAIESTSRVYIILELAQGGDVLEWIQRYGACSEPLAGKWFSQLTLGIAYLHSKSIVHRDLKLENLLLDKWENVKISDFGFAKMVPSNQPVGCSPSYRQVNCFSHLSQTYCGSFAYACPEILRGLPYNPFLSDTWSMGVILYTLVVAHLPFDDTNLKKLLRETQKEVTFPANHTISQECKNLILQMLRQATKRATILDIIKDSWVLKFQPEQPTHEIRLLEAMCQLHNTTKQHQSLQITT
Description: Inhibition of human recombinant TSSK4 at 40 nM in presence of ATP by radiometric assay relative to control.

Assay [12] concerns the target T3, Mitogen-activated protein kinase kinase kinase 7 (Homo sapiens) (UniProt O43318).
T3 sequence (whole entry): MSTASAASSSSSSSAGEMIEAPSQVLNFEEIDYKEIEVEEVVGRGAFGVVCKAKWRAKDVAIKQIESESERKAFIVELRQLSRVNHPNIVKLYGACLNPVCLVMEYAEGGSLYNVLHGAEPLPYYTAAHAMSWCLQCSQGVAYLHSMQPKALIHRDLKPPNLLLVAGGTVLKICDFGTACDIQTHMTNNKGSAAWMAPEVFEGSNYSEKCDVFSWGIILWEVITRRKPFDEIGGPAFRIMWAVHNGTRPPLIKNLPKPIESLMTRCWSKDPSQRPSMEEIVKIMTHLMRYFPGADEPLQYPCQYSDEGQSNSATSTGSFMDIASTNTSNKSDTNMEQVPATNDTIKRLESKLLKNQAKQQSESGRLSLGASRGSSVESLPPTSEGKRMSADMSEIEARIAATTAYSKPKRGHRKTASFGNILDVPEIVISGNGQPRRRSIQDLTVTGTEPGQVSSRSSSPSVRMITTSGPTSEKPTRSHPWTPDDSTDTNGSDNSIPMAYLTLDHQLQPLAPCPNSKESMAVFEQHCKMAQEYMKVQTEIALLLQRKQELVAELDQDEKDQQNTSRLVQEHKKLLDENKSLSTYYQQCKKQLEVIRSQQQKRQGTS
The assay can be described thus: Inhibition of human recombinant TAK1 at 40 nM related to control ULK1.

The target in assay [13] is Serine/threonine-protein kinase NIM1 (Homo sapiens) (UniProt Q8IY84). Description: Inhibition of human recombinant NIM1 at 40 nM in presence of ATP by radiometric assay relative to control.
For assay [14], the target named is STE20-like serine/threonine-protein kinase (Homo sapiens) (UniProt Q9H2G2). Description: Inhibition of human recombinant SLK at 40 nM related to control ULK1.
STE20-like serine/threonine-protein kinase (Homo sapiens), sequence (Q9H2G2 whole entry, looked up): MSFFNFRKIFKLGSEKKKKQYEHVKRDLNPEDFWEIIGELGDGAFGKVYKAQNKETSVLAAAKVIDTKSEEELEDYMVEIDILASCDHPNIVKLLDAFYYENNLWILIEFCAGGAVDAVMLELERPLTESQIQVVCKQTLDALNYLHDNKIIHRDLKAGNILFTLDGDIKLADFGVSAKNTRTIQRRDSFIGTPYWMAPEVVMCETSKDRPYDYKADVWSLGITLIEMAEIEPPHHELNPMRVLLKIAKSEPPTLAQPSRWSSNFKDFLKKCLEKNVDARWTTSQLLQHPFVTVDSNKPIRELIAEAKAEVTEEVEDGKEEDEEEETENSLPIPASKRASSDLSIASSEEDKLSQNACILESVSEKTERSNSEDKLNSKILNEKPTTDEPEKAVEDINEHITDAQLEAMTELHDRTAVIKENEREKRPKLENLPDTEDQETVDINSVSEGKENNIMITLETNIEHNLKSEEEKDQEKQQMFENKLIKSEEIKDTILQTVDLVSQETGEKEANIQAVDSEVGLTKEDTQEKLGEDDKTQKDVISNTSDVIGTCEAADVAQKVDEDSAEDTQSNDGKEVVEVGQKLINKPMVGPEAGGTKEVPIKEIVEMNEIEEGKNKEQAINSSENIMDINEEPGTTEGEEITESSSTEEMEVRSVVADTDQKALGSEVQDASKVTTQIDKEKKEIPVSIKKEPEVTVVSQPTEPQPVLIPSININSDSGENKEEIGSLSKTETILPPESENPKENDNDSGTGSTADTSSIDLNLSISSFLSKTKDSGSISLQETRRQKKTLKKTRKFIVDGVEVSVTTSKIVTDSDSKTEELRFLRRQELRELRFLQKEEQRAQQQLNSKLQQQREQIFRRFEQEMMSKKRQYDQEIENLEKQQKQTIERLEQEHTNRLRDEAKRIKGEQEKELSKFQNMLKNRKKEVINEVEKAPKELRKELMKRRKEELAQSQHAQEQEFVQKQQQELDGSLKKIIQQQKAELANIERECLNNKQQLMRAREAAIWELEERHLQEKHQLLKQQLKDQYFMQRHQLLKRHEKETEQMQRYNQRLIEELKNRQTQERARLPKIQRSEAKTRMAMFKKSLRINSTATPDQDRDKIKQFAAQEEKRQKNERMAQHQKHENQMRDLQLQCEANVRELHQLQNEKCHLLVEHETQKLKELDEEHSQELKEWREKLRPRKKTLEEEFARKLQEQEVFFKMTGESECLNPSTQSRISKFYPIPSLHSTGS
Assay [15] deals with Maternal embryonic leucine zipper kinase (Homo sapiens) (UniProt Q14680). Description: Inhibition of human recombinant MELK at 500 nM in presence of ATP by radiometric assay relative to control.
Maternal embryonic leucine zipper kinase (Homo sapiens), sequence (Q14680 whole entry, looked up): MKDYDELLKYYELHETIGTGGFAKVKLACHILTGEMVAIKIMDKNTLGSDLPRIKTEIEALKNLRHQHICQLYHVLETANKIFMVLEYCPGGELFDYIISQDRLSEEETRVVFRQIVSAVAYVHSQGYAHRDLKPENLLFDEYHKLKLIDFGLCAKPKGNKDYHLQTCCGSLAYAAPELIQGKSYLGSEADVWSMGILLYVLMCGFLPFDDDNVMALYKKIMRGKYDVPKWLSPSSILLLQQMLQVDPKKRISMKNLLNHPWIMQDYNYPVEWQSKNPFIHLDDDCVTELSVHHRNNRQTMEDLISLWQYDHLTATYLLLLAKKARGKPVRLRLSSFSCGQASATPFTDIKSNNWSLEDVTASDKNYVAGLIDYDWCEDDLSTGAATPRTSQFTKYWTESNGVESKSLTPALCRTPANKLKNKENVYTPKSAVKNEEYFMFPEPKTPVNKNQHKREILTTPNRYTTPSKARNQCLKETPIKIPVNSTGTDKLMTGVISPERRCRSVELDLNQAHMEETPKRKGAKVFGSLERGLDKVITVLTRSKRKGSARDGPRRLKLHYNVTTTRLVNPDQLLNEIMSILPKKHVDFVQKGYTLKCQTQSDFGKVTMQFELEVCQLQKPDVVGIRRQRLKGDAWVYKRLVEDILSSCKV

Experimental findings from ChEMBL document CHEMBL5653631, “A Potent and Selective ULK1 Inhibitor Suppresses Autophagy and Sensitizes Cancer Cells to Nutrient Stress” (iScience, 2018) are described below.

Cyclin-dependent kinase 7 (Homo sapiens), sequence (P50613 whole entry): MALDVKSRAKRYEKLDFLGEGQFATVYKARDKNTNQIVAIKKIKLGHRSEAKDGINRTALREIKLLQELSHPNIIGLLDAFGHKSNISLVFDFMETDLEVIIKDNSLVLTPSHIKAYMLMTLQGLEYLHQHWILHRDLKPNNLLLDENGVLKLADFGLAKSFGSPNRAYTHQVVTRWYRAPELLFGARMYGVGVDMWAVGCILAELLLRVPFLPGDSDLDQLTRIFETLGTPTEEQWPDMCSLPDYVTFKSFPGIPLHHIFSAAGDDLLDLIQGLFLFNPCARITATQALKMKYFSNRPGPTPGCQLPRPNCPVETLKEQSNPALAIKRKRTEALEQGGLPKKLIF

By inhibition is commonly meant the share of the control response that was lost under treatment. Turning to `CC(C)[C@H](NC(=O)c1cc(-c2cnn3cc(-c4ccc(OCCN5CCCCC5)cc4)cnc23)cs1)C(F)(F)F`, the inhibition came to 5% in assay [1] and 0% in assay [2]. For the same compound, the fold change (FC) was 0.05 in [3], 0.01 in assay [4] and 0 in assay [5].

For `O=C(N[C@@H](C1CC1)C(F)(F)F)c1cc(-c2cnn3cc(-c4ccc(F)cc4)cnc23)cs1`, the inhibition in assay [6] came to 23%; in assay [7] it was 3%; in [10] it was 0%; in assay [11], 0%; in assay [13] it was 0%. The fold change (FC) in [8] came out at 0.1; in assay [9], 0; in assay [12], 0; in assay [14], 0.

For the compound `CNC(=O)c1ccccc1Oc1nc(Nc2cc(OC)c(OC)c(OC)c2)ncc1Br`, the inhibition in assay [15] came to 0%.
